Data as given in US12673975B2, “Cyclic peptide, cell scaffold material, cell separating material, and medium” (FUJIFILM Corporation, priority 2019, dated 2026).
pKd: −log10 of the molar value. Starred links: 1 amine or outer side, 2 acyl side, 3 side chain; linkers in the order of their positions; H or OH if unused. Positions of bridges follow the written chain, without caps; N, C: chain ends. Non-standard residues stand in square brackets, D forms with d. Residues, ends and D or L forms follow the SMILES beside them. hCys = N[C@@H](CCS)C(=O)O; Orn = NCCC[C@H](N)C(=O)O; Dab = NCC[C@H](N)C(=O)O; Dap = NC[C@H](N)C(=O)O; X1 = O=C(C[*:2])[*:1]; X2 = O=C(C[*:1])[*:2]

Columns and labels:
[1] = biological target: human integrin αvβ5 (Homo sapiens, UniProt P06756+P18084); assay: Evaluation of integrin binding property (surface plasmon resonance, Biacore 3000, immobilized cyclic peptide); conditions: surface plasmon resonance, immobilized cyclic peptide, human integrin αvβ5; read-out: Binding activity (integrin binding property, dissociation constant rank)
How it was run: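 SPR with cyclic peptide amine-coupled via EDC/NHS to a CM5 chip, blank channel as reference. Integrin αvβ5 at 30, 100, 300 and 1,000 nM injected 10 min at 25 °C in HEPES buffer pH 7.4 with 5 mM MgCl2, 30 min buffer flow, EDTA regeneration; Kd from reference-subtracted signals, graded by category.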

[2] = Evaluation of molecule stability (alkali treatment, residual rate by LC/MS); assay type: physicochemical; conditions: alkali treatment, residual rate by LC/MS
How it was run: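 500 μM aqueous cyclic peptide mixed with an equal volume of 1 M NaOH and held 3 h at 15 °C. Residual rate is total LC/MS peak area after treatment relative to untreated (100%), using a C18 column, pH 3 ammonium formate/acetonitrile gradient, 45 °C, ESI±.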

Sequence of human integrin αvβ5 (P06756 31-1048): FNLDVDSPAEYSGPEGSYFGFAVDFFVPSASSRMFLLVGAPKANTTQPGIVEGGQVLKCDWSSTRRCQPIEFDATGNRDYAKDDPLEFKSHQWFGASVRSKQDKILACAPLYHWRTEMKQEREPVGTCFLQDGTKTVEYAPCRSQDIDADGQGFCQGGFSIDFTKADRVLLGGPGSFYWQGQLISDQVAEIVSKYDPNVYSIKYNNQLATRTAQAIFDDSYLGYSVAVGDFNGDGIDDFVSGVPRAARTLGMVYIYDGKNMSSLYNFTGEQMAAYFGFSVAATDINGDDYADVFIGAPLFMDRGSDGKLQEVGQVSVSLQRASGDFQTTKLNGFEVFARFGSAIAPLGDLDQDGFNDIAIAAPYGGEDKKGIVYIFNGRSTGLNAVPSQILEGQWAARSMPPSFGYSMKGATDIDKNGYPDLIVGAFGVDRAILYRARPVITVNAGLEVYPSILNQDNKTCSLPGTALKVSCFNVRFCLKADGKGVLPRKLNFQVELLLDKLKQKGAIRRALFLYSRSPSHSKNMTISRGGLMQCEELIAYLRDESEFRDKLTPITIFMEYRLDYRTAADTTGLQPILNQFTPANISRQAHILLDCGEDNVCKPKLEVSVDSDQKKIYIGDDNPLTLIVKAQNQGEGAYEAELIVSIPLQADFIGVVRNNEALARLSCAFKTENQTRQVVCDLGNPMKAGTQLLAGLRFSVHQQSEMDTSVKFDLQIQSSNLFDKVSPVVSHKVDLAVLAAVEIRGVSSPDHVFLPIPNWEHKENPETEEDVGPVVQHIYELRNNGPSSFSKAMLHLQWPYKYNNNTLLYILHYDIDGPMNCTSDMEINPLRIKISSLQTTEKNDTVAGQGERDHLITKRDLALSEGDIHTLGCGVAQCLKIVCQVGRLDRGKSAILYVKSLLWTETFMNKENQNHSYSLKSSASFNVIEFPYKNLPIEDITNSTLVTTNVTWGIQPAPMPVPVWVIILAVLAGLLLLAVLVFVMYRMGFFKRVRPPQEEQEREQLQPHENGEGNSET
Sequence of human integrin αvβ5 (P18084 24-799): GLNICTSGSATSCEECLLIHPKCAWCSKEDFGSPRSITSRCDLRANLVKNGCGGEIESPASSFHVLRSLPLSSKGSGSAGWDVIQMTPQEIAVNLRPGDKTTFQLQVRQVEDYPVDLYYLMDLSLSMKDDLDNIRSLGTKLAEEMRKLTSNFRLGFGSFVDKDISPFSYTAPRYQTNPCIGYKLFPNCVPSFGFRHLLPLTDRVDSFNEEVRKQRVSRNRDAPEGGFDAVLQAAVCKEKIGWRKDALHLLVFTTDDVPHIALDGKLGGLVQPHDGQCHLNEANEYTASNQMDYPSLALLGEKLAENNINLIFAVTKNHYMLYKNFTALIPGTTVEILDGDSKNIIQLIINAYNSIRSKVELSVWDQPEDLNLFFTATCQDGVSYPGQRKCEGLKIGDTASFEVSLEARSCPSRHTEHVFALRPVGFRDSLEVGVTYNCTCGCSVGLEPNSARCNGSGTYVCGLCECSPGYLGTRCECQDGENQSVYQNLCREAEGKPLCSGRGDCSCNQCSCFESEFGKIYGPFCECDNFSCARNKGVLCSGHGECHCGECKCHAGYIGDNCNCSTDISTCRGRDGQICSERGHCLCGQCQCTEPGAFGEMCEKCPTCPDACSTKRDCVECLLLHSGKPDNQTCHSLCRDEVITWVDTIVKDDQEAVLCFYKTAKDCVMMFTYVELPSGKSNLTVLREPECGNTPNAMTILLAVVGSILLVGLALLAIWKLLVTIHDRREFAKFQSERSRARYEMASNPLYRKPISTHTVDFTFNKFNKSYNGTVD

Compound | pKd [1] | Stability (molecule stability, residual rate of the cyclic peptide rank) [2]
CC[C@H](C)[C@@H]1NC(=O)[C@@H](NC(=O)CNC(=O)[C@H](CCCCN)NC(=O)[C@H](CCCCN)NC(=O)[C@@H](N)CCCCN)CNC(=O)CSCC[C@@H](C(=O)N[C@@H](C)C(=O)O)NC(=O)[C@H](CCCNC(=N)N)NC(=O)[C@H](Cc2ccccc2)NC(=O)[C@H]([C@@H](C)O)NC(=O)[C@H](CC(=O)O)NC(=O)CNC(=O)[C@H](CCCNC(=N)N)NC(=O)[C@@H]2CCCN2C1=O [Cyclic peptide 117, KKKG(Dap(acetyl))IPRGDTFR-(Hcy)-A] (H-KKKG[Dap]IPRGDTFR[hCys]A-OH; linker 5-14 via X1) | > 7.30 | B (The residual rate of the cyclic peptide is 50% or more and less than 70%.)
CC[C@H](C)[C@@H]1NC(=O)[C@@H](NC(=O)CNC(=O)[C@H](CCCCN)NC(=O)[C@H](CCCCN)NC(=O)[C@@H](N)CCCCN)CCNC(=O)CSCC[C@@H](C(=O)N[C@@H](C)C(=O)O)NC(=O)[C@H](CCCNC(=N)N)NC(=O)[C@H](Cc2ccccc2)NC(=O)[C@H]([C@@H](C)O)NC(=O)[C@H](CC(=O)O)NC(=O)CNC(=O)[C@H](CCCNC(=N)N)NC(=O)[C@@H]2CCCN2C1=O [Cyclic peptide 118, KKKG(Dab(acetyl))IPRGDTFR-(Hcy)-A] (H-KKKG[Dab]IPRGDTFR[hCys]A-OH; linker 5-14 via X1) | > 7.30 | A (The residual rate of the cyclic peptide is 70% or more.)
CC[C@H](C)[C@@H]1NC(=O)[C@@H](NC(=O)CNC(=O)[C@H](CCCCN)NC(=O)[C@H](CCCCN)NC(=O)[C@@H](N)CCCCN)CCCNC(=O)CSCC[C@@H](C(=O)N[C@@H](C)C(=O)O)NC(=O)[C@H](CCCNC(=N)N)NC(=O)[C@H](Cc2ccccc2)NC(=O)[C@H]([C@@H](C)O)NC(=O)[C@H](CC(=O)O)NC(=O)CNC(=O)[C@H](CCCNC(=N)N)NC(=O)[C@@H]2CCCN2C1=O [Cyclic peptide 119, KKKG(Orn(acetyl))IPRGDTFR-(Hcy)-A] (H-KKKG[Orn]IPRGDTFR[hCys]A-OH; linker 5-14 via X1) | > 7.30 | A (The residual rate of the cyclic peptide is 70% or more.)
CC[C@H](C)[C@@H]1NC(=O)[C@@H](NC(=O)CNC(=O)[C@H](CCCCN)NC(=O)[C@H](CCCCN)NC(=O)[C@@H](N)CCCCN)CCCCNC(=O)CSCC[C@@H](C(=O)N[C@@H](C)C(=O)O)NC(=O)[C@H](CCCNC(=N)N)NC(=O)[C@H](Cc2ccccc2)NC(=O)[C@H]([C@@H](C)O)NC(=O)[C@H](CC(=O)O)NC(=O)CNC(=O)[C@H](CCCNC(=N)N)NC(=O)[C@@H]2CCCN2C1=O [Cyclic peptide 120, KKKG(Lys(acetyl))IPRGDTFR-(Hcy)-A] (H-KKKGKIPRGDTFR[hCys]A-OH; linker 5-14 via X1) | 7.00 to 7.30 | A (The residual rate of the cyclic peptide is 70% or more.)
CC(C)[C@@H]1NC(=O)[C@@H](NC(=O)[C@H](C)NC(=O)[C@H](CCCCN)NC(=O)[C@H](CCCCN)NC(=O)[C@@H](N)CCCCN)CCSCC(=O)NCCCC[C@@H](C(=O)N[C@@H](C)C(=O)O)NC(=O)[C@H](C)NC(=O)[C@H](Cc2ccccc2)NC(=O)[C@H]([C@@H](C)O)NC(=O)[C@H](CC(=O)O)NC(=O)CNC(=O)[C@H](CCCNC(=N)N)NC(=O)[C@@H]2CCCN2C1=O [Cyclic peptide 121, KKKA-(Hcy)-VPRGDTFA(Lys(acetyl))A] (H-KKKA[hCys]VPRGDTFAKA-OH; linker 5-14 via X2) | > 7.30 | A (The residual rate of the cyclic peptide is 70% or more.)
